# From patent US8598345B2 (priority 2009, dated 2013)
# Target: human mGluR5 (Homo sapiens, UniProt P41594)
# Details: read-out: human mGluR5 IC50
# Description: The cells were loaded with a Ca2+-sensitive fluorescent dye (e.g., Fluo-4), and the plates were washed and placed in the FDSS instrument. Test compound was applied to cells 3 seconds after baseline readings were taken. Cells were incubated with the test compounds for 140 seconds and then stimulated with an EC20 concentration of an mGluR5 agonist (e.g., glutamate, 3,5-dihydroxyphenylglycine, or quisqualate); 60-80 seconds later an EC80 concentration of agonist was added and readings taken for an additional 40 seconds. Data were collected at 1 Hz. […] Concentration response curves were generated using a four parameter logistical equation.
# The above described assay was operated in two modes. In the first mode (utilizing a triple add protocol), a range of concentrations of the present compounds were added to cells, followed by two single fixed concentrations of agonist (EC20 followed by EC80). If a compound acted as a potentiator, an EC50 value for potentiation of the EC20 response and a maximum extent of potentiation by the compound at this concentration of agonist was determined by non-linear curve fitting. If a compound acted as an antagonist, an IC50 value for antagonism of the EC80 response and a maximum extent of antagonism by the compound at this concentration of agonist was determined by non-linear curve fitting. In the second mode (utilizing a double add protocol), several fixed concentrations of the present compounds were added to various wells on a plate, followed by a range of concentrations of agonist for each concentration of present compound; the EC50 values for the agonist at each concentration of compound were determined by nonlinear curve fitting. A decrease in the EC50 value of the agonist with increasing concentrations of the present compounds (a leftward shift of the agonist concentration-response curve) is an indication of the degree of mGluR5 positive allosteric modulation at a given concentration of the present compound. An increase in the EC50 value of the agonist with increasing concentrations of the present compounds (a rightward shift of the agonist concentration response curve) is an indication of the degree of mGluR5 antagonism at a given concentration of the present compound. The second mode also indicates whether the present compounds also affect the maximum response to mGluR5 to agonists.
# The mGluR5 activity was determined using the metabotropic glutamate receptor activity assays in human embryonic kidney cells as described herein. The mGluR5 activity data for some compounds are shown as the average of at least three experiments with the standard error in these cases. If no error is indicated for the mGluR5 activity, the values given represent the results from a single experiment or the average of two experiments.
# Chain of human mGluR5 (P41594 21-1212): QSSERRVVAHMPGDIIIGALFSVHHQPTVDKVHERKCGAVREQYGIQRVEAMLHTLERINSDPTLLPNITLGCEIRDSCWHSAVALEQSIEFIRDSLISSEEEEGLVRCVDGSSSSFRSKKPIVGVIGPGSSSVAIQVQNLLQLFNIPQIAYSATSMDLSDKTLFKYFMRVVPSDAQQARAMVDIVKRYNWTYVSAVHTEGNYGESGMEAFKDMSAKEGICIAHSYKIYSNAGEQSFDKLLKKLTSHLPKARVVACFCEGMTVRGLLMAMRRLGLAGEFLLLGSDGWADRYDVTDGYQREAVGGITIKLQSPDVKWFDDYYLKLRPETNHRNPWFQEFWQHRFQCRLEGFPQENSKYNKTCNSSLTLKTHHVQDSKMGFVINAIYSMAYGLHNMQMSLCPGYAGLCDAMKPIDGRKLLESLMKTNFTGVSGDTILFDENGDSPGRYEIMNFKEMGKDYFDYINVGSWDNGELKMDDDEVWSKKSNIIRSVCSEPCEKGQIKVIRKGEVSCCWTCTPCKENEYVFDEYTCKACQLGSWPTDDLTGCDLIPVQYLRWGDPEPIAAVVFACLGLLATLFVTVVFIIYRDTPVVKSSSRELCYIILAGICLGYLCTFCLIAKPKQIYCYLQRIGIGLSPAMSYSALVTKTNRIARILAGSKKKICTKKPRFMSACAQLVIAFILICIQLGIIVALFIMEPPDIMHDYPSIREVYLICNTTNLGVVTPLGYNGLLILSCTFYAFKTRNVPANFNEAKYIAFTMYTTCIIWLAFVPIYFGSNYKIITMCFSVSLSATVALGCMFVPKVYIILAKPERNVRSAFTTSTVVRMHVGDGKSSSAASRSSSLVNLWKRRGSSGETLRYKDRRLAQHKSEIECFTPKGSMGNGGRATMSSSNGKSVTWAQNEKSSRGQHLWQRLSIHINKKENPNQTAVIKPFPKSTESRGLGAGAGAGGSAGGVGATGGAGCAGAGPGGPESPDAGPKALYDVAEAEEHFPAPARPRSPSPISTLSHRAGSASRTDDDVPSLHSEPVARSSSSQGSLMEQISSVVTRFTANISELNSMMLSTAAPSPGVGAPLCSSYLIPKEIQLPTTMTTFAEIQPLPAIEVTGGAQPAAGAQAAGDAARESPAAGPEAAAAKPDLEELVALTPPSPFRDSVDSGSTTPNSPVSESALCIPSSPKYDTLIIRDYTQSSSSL
row,IC50 [nM],SMILES
1,101,Cc1csc(NC(=O)c2cc(Oc3cccnc3)ccn2)n1 [N-(4-methylthiazol-2-yl)-4-(pyridin-3-yloxy)picolinamide]
2,245,O=C(Nc1cccc(Cl)n1)c1cc(Oc2cncnc2)ccn1
3,47,Cc1cccc(NC(=O)c2cc(Oc3cncnc3)ccn2)n1 [N-(6-methylpyridin-2-yl)-4-(pyrimidin-5-yloxy)picolinamide]
4,364,O=C(Nc1ccc(F)cn1)c1cc(Oc2cncnc2)ccn1
5,201,O=C(Nc1cc(F)ccn1)c1cc(Oc2cncnc2)ccn1
6,2150,Cc1cccc(NC(=O)c2cc(N(C)c3cncnc3)ccn2)n1
7,943,Cc1nc(NC(=O)c2cc(Oc3cncnc3)ccn2)sc1F
8,161,O=C(Nc1cccc(F)n1)c1cc(Oc2cncnc2)ccn1

# System: not given
# Details: intravenous administration to rhesus monkeys; literature; cited from earlier work
row,SMILES,clearance
1,"Cc1nc(C#Cc2cccnc2)cs1 [MTEP, 3-[(2-methyl-1,3-thiazol-4-yl)ethynyl]pyridine]",efficiently cleared
